As a reminder, the Kd is the concentration at which binding is half-saturated. The term DC50 denotes the concentration giving 50% degradation. Read a low DC50 as degradation at low concentration.

The values that follow come from patent publication US20260373266A1, “PROTEIN DEGRADERS AND USES THEREOF” (KYMERA THERAPEUTICS, INC., priority 2022, published 2026).

The first assay deals with T1, DCAF1 WD40 domain (residues 1077-1390) (Homo sapiens, UniProt Q9Y4B6).
T1 construct: DCAF1 WD40 domain (residues 1077-1390)
T1 sequence (Q9Y4B6 1077-1390): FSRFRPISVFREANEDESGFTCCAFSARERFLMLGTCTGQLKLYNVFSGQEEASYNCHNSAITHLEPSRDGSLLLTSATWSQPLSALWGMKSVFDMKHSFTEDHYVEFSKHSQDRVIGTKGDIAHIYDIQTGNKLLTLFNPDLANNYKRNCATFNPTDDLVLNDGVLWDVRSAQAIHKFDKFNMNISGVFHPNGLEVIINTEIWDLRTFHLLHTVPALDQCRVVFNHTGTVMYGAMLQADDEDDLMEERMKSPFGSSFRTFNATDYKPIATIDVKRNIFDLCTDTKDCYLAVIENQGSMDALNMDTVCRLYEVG
Description: DCAF1 binding assay by SPR (Biacore 8K+), DCAF1-3 KD. Conditions: 25 °C, read-out: DCAF1-3 SPR (KD).
On to `Cc1sc2c(c1C)C(c1ccc(Cl)cc1)=N[C@@H](CC(=O)NCCOCCOCCOCCOCCOCCCc1ccc(C(=O)c3[nH]cc(C(=O)N[C@@H](CC(N)=O)c4cccc(Cl)c4)c3-c3c(F)ccc(F)c3C)cc1)c1nnc(C)n1-2` [I-907], for which the dissociation constant (Kd) is under 10 µM. Still for that read-out and setting: the value for `CO[C@@H]1C[C@@H](Nc2cc(N3CCOCC3)ccn2)CN(c2cccc(F)c2)C1` [I-512] was over 200 µM. As to `Cc1c(F)ccc(F)c1-c1c(C(=O)N[C@@H](CC(N)=O)c2cccc(Cl)c2)c[nH]c1C(=O)c1ccccc1` [I-653], the dissociation constant Kd was under 10 µM. Same read-out and setting: with `c1cc(CN2CCCC2)cc(N2CCC[C@@H](Nc3cc(N4CCOCC4)ccn3)C2)c1` [I-689] the figure was under 10 µM; with `COCCc1ccc(F)c(-c2[nH]ncc2C(=O)N[C@@H](CC(N)=O)c2cccc(Cl)c2)c1` [I-250], 10 to 100 µM. Still for that read-out and setting: with `C=CC(=O)NCCCCN1CCN(c2ccnc(N[C@@H]3CCCN(c4cccc(F)c4)C3)c2)CC1` [I-633] the figure was 10 to 100 µM. On the same count and under the same terms, with `Fc1cccc(N2CCC[C@@H](Nc3nccc(N4CCOCC4)n3)C2)c1` [I-370] the figure was over 200 µM; with `OC1(C2CCCCC2)CCC[C@@H](Nc2cc(N3CCCCC3)ccn2)C1` (some centres unmarked) [I-804], 10 to 100 µM. On to `C=CC(=O)N1CCC(c2n[nH]cc2C(=O)N[C@@H](CC(N)=O)c2cccc(Cl)c2)CC1` [I-452], for which the dissociation constant (Kd) was over 200 µM. As to `NC(=O)C[C@@](NC(=O)c1c[nH]nc1-c1ccccc1F)(c1ccccc1)c1cccc(Cl)c1` [I-256], the Kd was over 200 µM. As for `Fc1cccc(N2CCCC(n3cnc4nccc(N5CCOCC5)c43)C2)c1` (centres unmarked) [I-324], the Kd is over 200 µM. Still for that read-out and setting: the value for `CN1CCN(CCC2CCN(c3ccnc(N4CC[C@@H]5[C@H]4CCCN5c4cccc(F)c4)c3)CC2)CC1` [I-816] was under 10 µM; that for `Cc1nc(Nc2ncc(C(=O)Nc3c(C)cccc3Cl)s2)cc(N2CCC(OC3CCN(CCCCCCCC(=O)N4CCN(c5ccc6c(NCCN)nc(C7(c8ccc(Cl)cc8)CCCCC7)nc6c5)CC4)CC3)CC2)n1` [I-1053] was under 10 µM; that for `NC(=O)C[C@](CC(=O)O)(NC(=O)c1c[nH]nc1-c1ccccc1F)c1cccc(Cl)c1` [I-295] was over 200 µM. The same measure, in the same setting: with `CC(C)c1cccc(-c2[nH]ncc2C(=O)N[C@@H](CC(N)=O)c2cccc(Cl)c2)c1` [I-525] the figure was 10 to 100 µM; with `CN(c1cccc(F)c1)[C@@H]1CCN(c2cc(N3CCCCC3)ccn2)C1` [I-673], under 10 µM; with `NC(=O)C[C@H](NC(=O)c1n[nH]c2c1NCCC2)c1cccc(Cl)c1` [I-299], over 200 µM. The same measure, in the same setting: with `NCCCCCCCCCCCC1CCN(c2ccnc(N3CC[C@@H]4[C@H]3CCCN4c3cccc(F)c3)c2)CC1` [I-721] the figure was under 10 µM. For `N#Cc1ncccc1N1CCC[C@@H](Nc2cc(N3CCOCC3)ccn2)C1` [I-424], the Kd is over 200 µM. On the same count and under the same terms, with `Cc1c(F)c(Cl)cc(F)c1-c1[nH]ncc1C(=O)N[C@@H](CC(N)=O)c1cccc(Cl)c1` [I-1043] the figure was under 10 µM; with `NCCCCCCCCCCCCCCC(=O)c1[nH]cc(C(=O)N[C@@H](CC(N)=O)c2cccc(Cl)c2)c1-c1ccccc1F` [I-663], over 200 µM; with `c1cc(N2CCOCC2)cc(N[C@@H]2CCCN(c3ccc(C4CC4)cc3)C2)n1` [I-507], over 200 µM. Still for that read-out and setting: with `Fc1cccc(N2CCC[C@@H](Nc3cc(N4CC5CC5C4)ccn3)C2)c1` (some centres unmarked) [I-574] the figure was 10 to 100 µM; with `NC(=O)[C@@H]1CC[C@H](Nc2cc(N3CCCCC3)ccn2)CN1c1cccc(F)c1` [I-1027], 10 to 100 µM; with `C=CC(=O)Nc1n[nH]cc1C(=O)N[C@@H](CC(N)=O)c1cccc(Cl)c1` [I-308], over 200 µM.

Regarding `C=CC(=O)NCN1CCN(c2ccnc(N[C@@H]3CCCN(c4cccc(F)c4)C3)c2)CC1` [I-466], the dissociation constant (Kd) lay in the range of 10 to 100 µM.

Turning to `NC(=O)C[C@H](NC(=O)c1ccc(N)nc1-c1ccccc1F)c1cccc(Cl)c1` [I-588], the dissociation constant (Kd) fell in the range of 10 to 100 µM.

On to `O=C1C[C@@H]([C@@H](NC(=O)c2cn[nH]c2-c2ccccc2F)c2cccc(Cl)c2)CN1` [I-560], for which the Kd was over 200 µM. On the same count and under the same terms, the value for `NC(=O)C[C@H](NC(=O)c1c[nH]nc1-c1cc(C(=O)O)ccc1F)c1cccc(Cl)c1` [I-523] was 10 to 100 µM; that for `Cc1c(N2CCOCC2)ccnc1N[C@@H]1CCCN(c2cccc(F)c2)C1` [I-516] was 10 to 100 µM. With `Cc1c(F)ccc(F)c1-c1c(C(=O)N[C@@H](CC(N)=O)c2cccc(Cl)c2)c[nH]c1C(=O)c1cccc(O)c1` [I-792], the Kd was under 10 µM. Same read-out and setting: with `NCCNc1ccc(C2CCCCC2)cc1N[C@@H]1CCCN(c2cccc(F)c2)C1` [I-979] the figure was 10 to 100 µM. Still for that read-out and setting: with `Fc1cccc(N2CCC[C@H]3[C@@H]2CCN3c2cc(N3CCOCC3)ccn2)c1` [I-540] the figure was over 200 µM; with `CC(=O)n1ncc(C(=O)N[C@@H](CC(N)=O)c2cccc(Cl)c2)c1-c1ccccc1F` [I-175], over 200 µM; with `O=C(C[C@H](NC(=O)c1cn[nH]c1-c1ccccc1F)c1cccc(Cl)c1)NC1CC1` [I-142], over 200 µM. Same read-out and setting: the value for `CNC(=O)C[C@H](NC(=O)c1cn[nH]c1-c1ccccc1F)c1cccc(Cl)c1` [I-79] was 10 to 100 µM; that for `CN(c1ccccc1)c1ccnc(N[C@@H]2CCCN(c3cccc(F)c3)C2)c1` [I-614] was 10 to 100 µM. With `Cc1c(F)ccc(F)c1-c1c(C(=O)N[C@@H](CC(N)=O)c2cccc(Cl)c2)c[nH]c1C(=O)c1cccc(-c2ccccc2)c1` [I-702], the Kd was under 10 µM. Regarding `CN1CCC(n2cc(N3CCC[C@@H](Nc4cc(N5CCOCC5)ccn4)C3)cn2)CC1` [I-419], the equilibrium dissociation constant (Kd) was over 200 µM. Take `O=C(C[C@H](NC(=O)c1cn[nH]c1-c1ccccc1F)c1cccc(Cl)c1)NCc1ccccc1` [I-84]: the dissociation constant (Kd) lay in the range of 10 to 100 µM.

In the case of `Fc1cccc(N2CCC[C@@H](Nc3cc(N4CC5CCC(C5)C4)ccn3)C2)c1` [I-553], the Kd is under 10 µM. The same measure, in the same setting: with `O[C@@H]1CCCN(c2ccnc(N3CC[C@@H]4[C@H]3CCCN4c3cccc(F)c3)c2)C1` [I-794] the figure was under 10 µM.

As for `Fc1cccc(N2CCCC[C@@H](Nc3cc(N4CCOCC4)ncn3)C2)c1` [I-219], the Kd is over 200 µM. Still for that read-out and setting: the value for `c1cc(N2CCOCC2)cc(N[C@@H]2CCCN(c3ccnc(OC4CC4)c3)C2)n1` [I-687] was 10 to 100 µM. As for `C=CC(=O)NC#Cc1n[nH]cc1C(=O)N[C@@H](CC(N)=O)c1cccc(Cl)c1` [I-473], the equilibrium dissociation constant (Kd) was over 200 µM.

Regarding `c1cc2cc(N3CCC[C@@H](Nc4nccc(N5CCOCC5)n4)C3)ccc2cn1` [I-33], the Kd is over 200 µM. On the same count and under the same terms, the value for `CC1CC=C(c2[nH]ncc2C(=O)N[C@@H](CC(N)=O)c2cccc(Cl)c2)CC1` (some centres unmarked) [I-611] was under 10 µM; that for `NC(=O)C[C@H](NC(=O)c1cn[nH]c1-c1c(F)ccc(F)c1C(F)(F)F)c1cccc(Cl)c1` [I-793] was under 10 µM; that for `C=CC(=O)N1CCCC(c2[nH]ncc2C(=O)N[C@@H](CC(N)=O)c2cccc(Cl)c2)C1` (some centres unmarked) [I-469] was over 200 µM. On the same count and under the same terms, the value for `Cc1sc2c(c1C)C(c1ccc(Cl)cc1)=N[C@@H](CC(=O)NCCCCCCCCCCCCCCCCCCCCC(=O)c1[nH]cc(C(=O)N[C@@H](CC(N)=O)c3cccc(Cl)c3)c1-c1ccccc1F)c1nnc(C)n1-2` [I-894] was over 200 µM; that for `C=CC(=O)NCCCN1CCN(c2ccnc(N3CC[C@@H]4[C@H]3CCCN4c3cccc(F)c3)c2)CC1` [I-846] was 10 to 100 µM; that for `CCCn1cc(N2CCC[C@@H](Nc3cc(N4CCOCC4)ccn3)C2)cn1` [I-694] was over 200 µM. In the case of `Cc1nn(CC(F)(F)F)cc1N1CCC[C@@H](Nc2cc(N3CCOCC3)ccn2)C1` [I-422], the Kd was over 200 µM.

For `NC(=O)C[C@H](NC(=O)c1n[nH]c2ccccc12)c1cccc(Cl)c1` [I-297], the equilibrium dissociation constant (Kd) is over 200 µM. Same read-out and setting: the value for `NC(=O)C[C@H](NC(=O)c1cn[nH]c1-c1ccccc1C(N)=O)c1cccc(Cl)c1` [I-349] was 10 to 100 µM; that for `c1cnc2cc(N3CCC[C@@H](Nc4cc(N5CCOCC5)ncn4)C3)ccc2c1` [I-403] was over 200 µM.

`O[C@@H]1C[C@@H](Nc2cc(N3CCOCC3)ccn2)CN(c2cccc(F)c2)C1` [I-274]: the Kd was in the range of 10 to 100 µM.

For `NC(=O)C[C@H](NC(=O)c1c[nH]nc1-c1cc(=O)[nH]cn1)c1cccc(Cl)c1` [I-238], the dissociation constant Kd was over 200 µM. Same read-out and setting: the value for `C=CC(=O)N1CCCC(N(C)c2ccnc(N[C@@H]3CCCN(c4cccc(F)c4)C3)c2)C1` (some centres unmarked) [I-459] was over 200 µM; that for `Fc1cccc(N2CCC[C@@H](Nc3nccc(N4CCCCC4)n3)C2)c1` [I-319] was 100 to 200 µM. On to `Nc1ccc(F)cc1N1CCC[C@@H]2[C@H]1CCN2c1cc(N2CCCCC2)ccn1` [I-811], for which the dissociation constant Kd was under 10 µM. The same measure, in the same setting: with `NC(=O)C[C@H](NC(=O)c1c[nH]nc1-c1cccc2cc[nH]c12)c1cccc(Cl)c1` [I-235] the figure was over 200 µM.

Consider `Cc1ccc(C(=O)c2[nH]cc(C(=O)N[C@@H](CC(N)=O)c3cccc(Cl)c3)c2-c2c(C)cccc2F)cc1` [I-625], for which the Kd is under 10 µM. On the same count and under the same terms, the value for `Fc1cccc(N2C[C@H](F)C[C@@H](Nc3cc(N4CCOCC4)ccn3)C2)c1` [I-275] was over 200 µM; that for `COc1ncc(N[C@@H]2CCCN(c3cccc(F)c3)C2)cc1N1CCOCC1` [I-558] was under 10 µM. For the compound `CC(C)Oc1cncc(N2CCC[C@@H](Nc3cc(N4CCOCC4)ccn3)C2)c1` [I-433], the dissociation constant (Kd) lay within 100 to 200 µM.

Staying with this assay, now noted: DCAF1-3 SPR (KD), 25 °C.
Compound `Cc1sc2c(c1C)C(c1ccc(Cl)cc1)=N[C@@H](CC(=O)NCCOCCOCCOCCOCCCc1ccc(C(=O)c3[nH]cc(C(=O)N[C@@H](CC(N)=O)c4cccc(Cl)c4)c3-c3c(F)ccc(F)c3C)cc1)c1nnc(C)n1-2` [I-905, N—((S)-3-amino-1-(3-chlorophenyl)-3-oxopropyl)-5-(4-(1-((S)-4-(4-chlorophenyl)-2,3,9-trimethyl-6H-thieno[3,2-f][1,2,4]triazolo[4,3-a][1,4]diazepin-6-yl)-2-oxo-6,9,12,15-tetraoxa-3-azaoctadecan-18-yl)benzoyl)-4-(3,6-difluoro-2-methylphenyl)-1H-pyrrole-3-carboxamide] returned an equilibrium dissociation constant (Kd) of under 10 µM.

Another assay has as its system BRD4 (N-terminally HiBiT-tagged, HEK293T cells). Description: BRD4 degradation in HiBiT-BRD4-HEK293T cells. In kind it is cell-based.
Settings: not given
On the technique in general: HiBiT is a short tag that completes a luciferase, so light tracks the accessible tagged protein.
For `Cc1sc2c(c1C)C(c1ccc(Cl)cc1)=N[C@@H](CC(=O)NCCOCCOCCOCCOCCCc1ccc(C(=O)c3[nH]cc(C(=O)N[C@@H](CC(N)=O)c4cccc(Cl)c4)c3-c3c(F)ccc(F)c3C)cc1)c1nnc(C)n1-2` [I-905, N—((S)-3-amino-1-(3-chlorophenyl)-3-oxopropyl)-5-(4-(1-((S)-4-(4-chlorophenyl)-2,3,9-trimethyl-6H-thieno[3,2-f][1,2,4]triazolo[4,3-a][1,4]diazepin-6-yl)-2-oxo-6,9,12,15-tetraoxa-3-azaoctadecan-18-yl)benzoyl)-4-(3,6-difluoro-2-methylphenyl)-1H-pyrrole-3-carboxamide], the 50% degradation concentration (DC50) was over 0.5 µM and the Dmax result is “B (70-90%)”. The corresponding values for `Cc1sc2c(c1C)C(c1ccc(Cl)cc1)=N[C@@H](CC(=O)NCCOCCOCCOCCOCCOCCCc1ccc(C(=O)c3[nH]cc(C(=O)N[C@@H](CC(N)=O)c4cccc(Cl)c4)c3-c3c(F)ccc(F)c3C)cc1)c1nnc(C)n1-2` [I-907] are 0.01 to 0.1 µM and “B (70-90%)”.
